According to patent US10947237B2, “Antimicrobial compounds and methods of making and using the same” (BIOVERSYS AG, priority 2015, dated 2021):

How the values were obtained:
[1] = tested on: Eschericia coli (E. Coli) strain ATCC25922; experiment: standard microdilution assay, minimum inhibitory concentration (MIC); assay type: cell-based; conditions: Escherichia coli
Description: (§1) The in vitro activity of the compounds of the present disclosure can be determined. Antimicrobial testing is typically performed to determine the minimum inhibitory concentration (MIC). Minimum inhibitory concentrations (MICs) are determined by the microdilution method in a final volume of 100 μl according to protocols outlined by The Clinical and Laboratory Standards Institute (CLSI). Performance standards for reference strains are assessed within the same experimental design to maintain quality control. See, for example, Clinical Laboratory Standards Institute: Methods for dilution antimicrobial susceptibility tests for bacteria that grow aerobically M7-A8. Approved Standard-Eighth Edition. Wayne, Pa.: CLSI; December 2008; and Clinical Laboratory Standards Institute: Performance Standards for Antimicrobial Susceptibility Testing M100-S20; Approved Standard-Twentieth Edition. Wayne, Pa.: CLSI; June 2010. The compounds of the present disclosure were tested for antimicrobial activity. The Compounds 1-149 were run against Eschericia coli (E. Coli) strain ATCC25922 and against Staphylococcus aureus (S. aureus) 11540 strain using a standard microdilution assay to determine minimum inhibitory concentrations (MICs). […] It will be recognized by one skilled in the art that the compounds can be assessed against other bacterial organisms and that the presentation of data for activity against Eschericia coli and Staphylococcus aureus are illustrative and in no way is intended to limit the scope of the present disclosure. The compounds of the present disclosure can be assayed against a range of other microorganisms depending upon the performance activity desired to be gathered. Furthermore, the “+” and “−” representation and the selection of a cutoff value of 16 micrograms/mL is also illustrative and in no way is intended to limit the scope of the present disclosure.

[2] = tested on: Staphylococcus aureus (S. aureus) 11540 strain; experiment: as above; assay type: cell-based
Description: as §1

MIC ([1]; Table 2, strain ATCC25922) | MIC ([2]; Table 2, 11540 strain) | MIC ([1]; ATCC25922, Table 2a) | MIC ([2]; Table 2a) | SMILES
≤ 16 µg/mL | ≤ 16 µg/mL |  |  | C[C@H](N)CCCc1cc(Cl)c(F)c(-c2cc3cn(-c4ccc(CN[C@H](CCNC(=N)N)CC(N)=O)cc4)c(=O)nc3[nH]2)c1 [Compound 61]
 |  | ≤ 16 µg/mL | ≤ 16 µg/mL | CC(=N)NCC[C@@H](CNC(C)=N)OCc1ccc(-n2cc3cc(-c4cc(CCC[C@H](C)N)cc(Cl)c4F)[nH]c3nc2=O)cc1 [Compound 173]
≤ 16 µg/mL | ≤ 16 µg/mL |  |  | C[C@H](N)CCCc1cc(Cl)c(F)c(-c2cc3cn(-c4ccc([C@@H]5CC[C@@H](CNC(=N)N)O5)cc4)c(=O)nc3[nH]2)c1 [Compound 69]
> 16 µg/mL | > 16 µg/mL |  |  | N=C(N)NCC[C@H](CNc1ccccn1)OCc1ccc(-n2cc3cc(C4CCNC4)[nH]c3nc2=O)cc1 (stereo partly drawn) [Compound 103]
> 16 µg/mL | > 16 µg/mL |  |  | CC1=NCC[C@@H]2CCC[C@@H](c3ccc(-n4cc5cc(C6CCNC6)[nH]c5nc4=O)cc3)N12 (stereo partly drawn) [Compound 116]
≤ 16 µg/mL | ≤ 16 µg/mL |  |  | Cc1ccnc(NC[C@@H](CCNC(=N)N)NCc2ccc(-n3cc4cc(-c5cc(CCC[C@H](C)N)cc(Cl)c5F)[nH]c4nc3=O)cc2)c1 [Compound 14]
≤ 16 µg/mL | ≤ 16 µg/mL |  |  | C[C@H](N)CCCc1cc(Cl)c(F)c(-c2cc3cn(-c4ccc(CN[C@H](CCNC(=N)N)CNc5ncccc5F)cc4)c(=O)nc3[nH]2)c1 [Compound 106]
≤ 16 µg/mL | ≤ 16 µg/mL |  |  | C[C@H](NCCCNC(=N)N)c1ccc(-n2cc3cc(-c4cc([C@@H]5CC[C@@H](CN)O5)cc(Cl)c4F)[nH]c3nc2=O)cc1 [Compound 148]
≤ 16 µg/mL | ≤ 16 µg/mL |  |  | COc1ccc(NC[C@@H](CCNC(=N)N)NCc2ccc(-n3cc4cc(-c5cc(CCC[C@H](C)N)cc(Cl)c5F)[nH]c4nc3=O)cc2)nn1 [Compound 39]
≤ 16 µg/mL | ≤ 16 µg/mL |  |  | CC(=N)NCC[C@@H]1CCC[C@@H](c2ccc(-n3cc4cc(-c5cc(CCC[C@@H](N)CO)cc(Cl)c5F)[nH]c4nc3=O)cc2)N1 [Compound 151]
≤ 16 µg/mL | > 16 µg/mL |  |  | N=C(N)NCC[C@H]1CN(c2ccc(-n3cc4cc(CCNC5CCNCC5)[nH]c4nc3=O)cc2)CCO1 [Compound 144]
≤ 16 µg/mL | ≤ 16 µg/mL |  |  | C[C@H](N)CCCc1cc(Cl)c(F)c(-c2cc3cn(-c4ccc([C@@H]5CCC[C@@H](CCNC(=N)CF)N5)cc4)c(=O)nc3[nH]2)c1 [Compound 85]
≤ 16 µg/mL | ≤ 16 µg/mL |  |  | C[C@H](N)CCCc1cc(Cl)c(F)c(-c2cc3cn(-c4ccc([C@H]5CC(CCNC(=N)N)CC(CO)O5)cc4)c(=O)nc3[nH]2)c1 (stereo partly drawn) [Compound 87]
> 16 µg/mL | > 16 µg/mL |  |  | N=C(N)NCC[C@@H]1CN(c2ccc(-n3cc4cc(C5CCNC5)[nH]c4nc3=O)cc2)CCO1 (stereo partly drawn) [Compound 147]
≤ 16 µg/mL | ≤ 16 µg/mL |  |  | C[C@H](N)CCCc1cc(Cl)c(F)c(-c2cc3cn(-c4ccc([C@@H]5CCC[C@@H](CCn6ccoc6=O)N5)cc4)c(=O)nc3[nH]2)c1 [Compound 17]
≤ 16 µg/mL | ≤ 16 µg/mL |  |  | C[C@H](N)CCCc1cc(Cl)c(F)c(-c2cc3cn(-c4ccc([C@@H]5C[C@H](Nc6nccs6)C[C@@H](CCNC(=N)N)O5)cc4)c(=O)nc3[nH]2)c1 [Compound 108]
≤ 16 µg/mL | ≤ 16 µg/mL |  |  | C[C@H](N)CCCc1cc(Cl)c(F)c(-c2cc3cn(-c4ccc(CN[C@H](CCNC(=N)N)CNc5cc(=O)cc[nH]5)cc4)c(=O)nc3[nH]2)c1 [Compound 46]
≤ 16 µg/mL | ≤ 16 µg/mL |  |  | C[C@H](N)CCCc1cc(Cl)c(F)c(-c2cc3cn(-c4ccc(CO[C@H](CCNC(=N)N)CNc5ncc[nH]5)cc4)c(=O)nc3[nH]2)c1 [Compound 76]
> 16 µg/mL | > 16 µg/mL |  |  | N=C(N)NCC[C@@H]1C[C@H](CN)O[C@@H](c2ccc(-n3cc4cc(C5CCNC5)[nH]c4nc3=O)cc2)C1 (stereo partly drawn) [Compound 98]
≤ 16 µg/mL | ≤ 16 µg/mL |  |  | C[C@H](N)CCCc1cc(Cl)c(F)c(-c2cc3cn(-c4ccc(CO[C@H](CO)CCNC(=N)N)cc4)c(=O)nc3[nH]2)c1 [Compound 59]
≤ 16 µg/mL | ≤ 16 µg/mL |  |  | C[C@H](N)CCCc1cc(Cl)c(F)c(-c2cc3cn(-c4ccc([C@H]5CC(N)C[C@H](CCNC6=NCCN6)O5)cc4)c(=O)nc3[nH]2)c1 (stereo partly drawn) [Compound 143]
> 16 µg/mL | > 16 µg/mL |  |  | N=C(N)NCC[C@H](CF)OCc1ccc(-n2cc3cc(C4CCNC4)[nH]c3nc2=O)cc1 (stereo partly drawn) [Compound 136]

MIC ([1]; Table 2, strain ATCC25922) | MIC ([2]; Table 2, 11540 strain) | MIC ([1]; ATCC25922, Table 2a) | MIC ([2]; Table 2a) | SMILES
 |  | ≤ 16 µg/mL | ≤ 16 µg/mL | C[C@H](N)CCCc1cc(Cl)c(F)c(-c2cc3cn(-c4ccc(CO[C@H](CCN5CCNC5=O)CNC(=N)N)cc4)c(=O)nc3[nH]2)c1 [Compound 177]
> 16 µg/mL | > 16 µg/mL |  |  | N=C(N)NCC[C@@H]1CN(c2ccc(-n3cc4cc(CCNC5CCNCC5)[nH]c4nc3=O)cc2)CCO1 [Compound 146]
> 16 µg/mL | > 16 µg/mL |  |  | C[C@H](N)CCCc1cc(Cl)c(F)c(-c2cc3cn(-c4ccc([C@@H]5CCC[C@@H](CCNc6ncccn6)N5)cc4)c(=O)nc3[nH]2)c1 [Compound 12]
≤ 16 µg/mL | ≤ 16 µg/mL |  |  | N=C(N)NCC[C@H](CNC(=N)N)OCc1ccc(-n2cc3cc(C4CCNC4)[nH]c3nc2=O)cc1 (stereo partly drawn) [Compound 129]
≤ 16 µg/mL | ≤ 16 µg/mL |  |  | C[C@H](N)CCCc1cc(Cl)c(F)c(-c2cc3cn(-c4ccc(N5CCO[C@@H](CCNC(=N)N)C5)cc4)c(=O)nc3[nH]2)c1 [Compound 134]
 |  | ≤ 16 µg/mL | ≤ 16 µg/mL | CC(=N)NC[C@@H](CCNC(=N)N)OCc1ccc(-n2cc3cc(-c4cc(CCC[C@H](C)N)cc(Cl)c4F)[nH]c3nc2=O)cc1 [Compound 168]
≤ 16 µg/mL | ≤ 16 µg/mL |  |  | C[C@H](N)CCCc1cc(Cl)c(F)c(-c2cc3cn(-c4ccc([C@@H]5CCC[C@@H](CCNc6nc7ccccc7[nH]6)N5)cc4)c(=O)nc3[nH]2)c1 [Compound 43]
> 16 µg/mL | > 16 µg/mL |  |  | C[C@@H](CCNC(=N)N)OCc1ccc(-n2cc3cc(CCNC4CCNCC4)[nH]c3nc2=O)cc1 [Compound 112]
> 16 µg/mL | > 16 µg/mL |  |  | CC1=NCC[C@@H]2CCC[C@@H](c3ccc(-n4cc5cc(CCNC6CCNCC6)[nH]c5nc4=O)cc3)N12 [Compound 118]
≤ 16 µg/mL | ≤ 16 µg/mL |  |  | C[C@H](N)CCCc1cc(Cl)c(F)c(-c2cc3cn(-c4ccc(CN[C@H](CCNC(=N)N)CNc5nnn[nH]5)cc4)c(=O)nc3[nH]2)c1 [Compound 49]
≤ 16 µg/mL | ≤ 16 µg/mL |  |  | N=C(CF)NCC[C@@H]1CCC[C@@H](c2ccc(-n3cc4cc(-c5cc(CCC[C@@H](N)CO)cc(Cl)c5F)[nH]c4nc3=O)cc2)N1 [Compound 150]
≤ 16 µg/mL | ≤ 16 µg/mL |  |  | C[C@H](N)CCCc1cc(Cl)c(F)c(-c2cc3cn(-c4ccc([C@H]5CCC[C@H](CCNc6nc7ccccc7[nH]6)N5)cc4)c(=O)nc3[nH]2)c1 [Compound 44]
≤ 16 µg/mL | ≤ 16 µg/mL |  |  | C[C@H](N)CCCc1cc(Cl)c(F)c(-c2cc3cn(-c4ccc(CN[C@H](CCNC(=N)N)CNc5ncns5)cc4)c(=O)nc3[nH]2)c1 [Compound 38]
> 16 µg/mL | > 16 µg/mL |  |  | C[C@@H](CCNC(=N)N)OCc1ccc(-n2cc3cc(C4CCNC4)[nH]c3nc2=O)cc1 (stereo partly drawn) [Compound 131]
≤ 16 µg/mL | ≤ 16 µg/mL |  |  | CC(=N)NCC[C@H]1CCC[C@H](c2ccc(-n3cc4cc(-c5cc(CCC[C@H](C)N)cc(Cl)c5F)[nH]c4nc3=O)cc2)N1 [Compound 1]
≤ 16 µg/mL | ≤ 16 µg/mL |  |  | CC1=NCC[C@H]2CCC[C@H](c3ccc(-n4cc5cc(-c6cc(CCC[C@H](C)N)cc(Cl)c6F)[nH]c5nc4=O)cc3)N12 [Compound 2]
≤ 16 µg/mL | ≤ 16 µg/mL |  |  | C=C[C@@H](CCNC(=N)N)OCc1ccc(-n2cc3cc(-c4cc(CCC[C@H](C)N)cc(Cl)c4F)[nH]c3nc2=O)cc1 [Compound 132]
≤ 16 µg/mL | ≤ 16 µg/mL |  |  | C[C@H](N)CCCc1cc(Cl)c(F)c(-c2cc3cn(-c4ccc(CN[C@H](CCNC(=N)N)CNc5cnccn5)cc4)c(=O)nc3[nH]2)c1 [Compound 48]
≤ 16 µg/mL | ≤ 16 µg/mL |  |  | C[C@H](N)CCCc1cc(Cl)c(F)c(-c2cc3cn(-c4ccc(CN[C@H](CCNC(=N)N)CNc5cccc6sccc56)cc4)c(=O)nc3[nH]2)c1 [Compound 36]
> 16 µg/mL | ≤ 16 µg/mL |  |  | C[C@H](N)CCCc1cc(Cl)c(F)c(-c2cc3cn(-c4ccc([C@@H]5CCC[C@@H](C[C@H](O)c6ccn[nH]6)N5)cc4)c(=O)nc3[nH]2)c1 [Compound 23]
 |  | ≤ 16 µg/mL | ≤ 16 µg/mL | COC[C@H](N)CCCc1cc(OC(F)(F)F)c(F)c(-c2cc3cn(-c4ccc(CO[C@H](CCNC(=N)N)CNC(=N)N)cc4)c(=O)nc3[nH]2)c1 [Compound 165]
≤ 16 µg/mL | ≤ 16 µg/mL |  |  | Cc1nc(NCC[C@H]2CCC[C@H](c3ccc(-n4cc5cc(-c6cc(CCC[C@H](C)N)cc(OC(F)(F)F)c6F)[nH]c5nc4=O)cc3)N2)[nH]c1C [Compound 53]

SMILES | MIC ([1]; Table 2, strain ATCC25922) | MIC ([2]; Table 2, 11540 strain) | MIC ([1]; ATCC25922, Table 2a) | MIC ([2]; Table 2a)
C[C@H](N)CCCc1cc(Cl)c(F)c(-c2[nH]c3nc(=O)n(-c4ccc([C@H](C)NCCCNC(=N)N)cc4)cc3c2[N+](=O)[O-])c1[N+](=O)[O-] [Compound 111] | > 16 µg/mL | ≤ 16 µg/mL |  | 
